The values that follow come from US8536187B2 (Gilead Sciences, Inc., priority 2008, dated 2013).

The structures appear in SMILES notation.

Data set [1] can be described thus: CC50 assay (CellTiter-Glo) in Huh-7 HCV replicon cells. The format is cell-based. The settings on record: human. In a few lines: (§1)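 Cytotoxicity (CC50) read by CellTiter-Glo luminescence after 10 min, and antiviral EC50 by luciferase signal after 30 min lysis with substrate, both at room temperature. Preceding step: 3-day exposure of 6000 Huh-7 HCV replicon cells per well to compound dilution series at 37° C, 5% CO2, in 0.5% DMSO.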
On the technique in general: ATP-based viability assays read luminescence as a measure of living cells.

The subject of data set [2] is HCV replicon in human hepatoma Huh-7 cell line. Put plainly: Anti-HCV replicon assay, EC50 (luciferase luminescence). The settings on record: Hepatitis C virus, Huh-7, 72 h. It is filed as cell-based. Summed up: as §1

One may read the CC50 as the concentration at which the toxic effect on the cells reaches its halfway point. By EC50 is commonly meant the concentration giving half of the maximal effect. Lower therefore signals an effect from little substance. In data set [1] (Table 2, 3 days incubation), `CC(C)Oc1nc(N[C@H](C)c2ccc(S(N)(=O)=O)cc2)nc2ccc(C#CC3CC3)nc12` [Example 304, (R)-4-(1-(6-(2-cyclopropyl-ethynyl)-4-isopropoxypyrido [3,2-d]pyrimidin-2-ylamino)ethyl)benzenesulfonamide] showed a CC50 at 3 days greater than 10000 nM. In addition, the EC50 in data set [2] was less than 100 nM.

`COc1ccc(-c2ccc3nc(NCc4cccc(S(C)(=O)=O)c4)nc(NCC(F)(F)F)c3n2)cc1S(C)(=O)=O` [Example 177, N^2-(3-(methylsulfonyl)benzyl)-6-(4-methoxy-3-(methylsulfonyl)phenyl)-N^4-(2,2,2-trifluoroethyl) pyrido[3,2-d]pyrimidine-2,4-diamine]: in data set [1] (Table 2, 3 days incubation), the CC50 at 3 days was in the range of 1000 to 10000 nM. Moreover, in data set [2], the EC50 was less than 100 nM.

With `CC(C)Oc1ccc(-c2ccc3nc(NCc4ccc(-n5cncn5)cc4)nc(NCC(F)(F)F)c3n2)cn1` [Example 240, N^2-(4-(1H-1,2,4-triazol-1-yl)benzyl)-6-(6-isopropoxy-pyridin-3-yl)-N^4-(2,2,2-trifluoroethyl)pyrido[3,2-d] pyrimidine-2,4-diamine], the CC50 at 3 days in data set [1] (Table 2, 3 days incubation) was greater than 10000 nM. Further, the EC50 in data set [2] is less than 100 nM.

Consider `C[C@@H](Nc1nc(OC2CCC2)c2nc(-c3ccc(OC4CC4)nc3)ccc2n1)c1ccc(S(N)(=O)=O)cc1` [Example 252, 4-((R)-1-(4-cyclobutoxy-6-(6-cyclopropoxypyridin-3-yl)pyrido[3,2-d]pyrimidin-2-ylamino)ethyl)benzene-sulfonamide], for which the CC50 at 3 days in data set [1] (Table 2, 3 days incubation) was in the range of 1000 to 10000 nM. The compound also showed an EC50 in data set [2] of less than 100 nM.

Take `FC(F)(F)CNc1nc(NCc2ccc(-n3cncn3)cc2)nc2ccc(-c3ccc(OC4CC4)nc3)nc12` [Example 246, N^2-(4-(1H-1,2,4-triazol-1-yl)benzyl)-6-(6-cyclopropoxy-pyridin-3-yl)-N^4-(2,2,2-trifluoroethyl)pyrido[3,2-d] pyrimidine-2,4-diamine]: the CC50 at 3 days in data set [1] (Table 2, 3 days incubation) was greater than 10000 nM. This compound yielded an EC50 in data set [2] of less than 100 nM.

In data set [1] (Table 2, 3 days incubation), `COCc1ccc(-c2ccc3nc(NCc4ccc(S(N)(=O)=O)cc4)nc(NCC(F)(F)F)c3n2)cc1S(C)(=O)=O` [Example 146, 4-((6-(4-(methoxymethyl)-3-(methylsulfonyl)phenyl)-4-(2,2,2-trifluoroethylamino)pyrido[3,2-d]pyrimidin-2-ylamino)methyl)benzene-sulfonamide] registered a CC50 at 3 days greater than 10000 nM. The compound also gave an EC50 in data set [2] of less than 100 nM.

Take `C[C@@H](Nc1nc(NCC(F)(F)F)c2nc(C#Cc3cncs3)ccc2n1)c1ccc(S(N)(=O)=O)cc1` [Example 297, (R)-4-(1-(6-(2-(thiazol-5-yl)ethynyl)-4-(2,2,2-trifluoro-ethylamino)pyrido[3,2-d]pyrimidin-2-ylamino)ethyl) benzenesulfonamide]: the CC50 at 3 days in data set [1] (Table 2, 3 days incubation) is greater than 10000 nM. This compound yielded an EC50 in data set [2] of 250 to 2000 nM.

For `CC#Cc1ccc2nc(N[C@H](C)c3ccc(S(N)(=O)=O)cc3)nc(OC3(C)CC3)c2n1` [Example 302, (R)-4-(1-(4-(1-methylcyclo-propoxy)-6-(prop-1-ynyl)pyrido[3,2-d]pyrimidin-2-ylamino)ethyl)benzene-sulfonamide], in data set [1] (Table 2, 3 days incubation), the CC50 at 3 days was greater than 10000 nM. This compound gave an EC50 in data set [2] of less than 100 nM.

The compound `C[C@H](Nc1nc(NCc2ccc(S(N)(=O)=O)cc2)nc2ccc(C#CC3CC3)nc12)C(F)(F)F` [Example 290, (S)-4-((6-(2-cyclopropyl-ethynyl)-4-(1,1,1-trifluoro-propan-2-ylamino)pyrido [3,2-d]pyrimidin-2-ylamino)methyl)benzene-sulfonamide] came in with a cytotoxic concentration (CC50) at 3 days in data set [1] (Table 2, 3 days incubation) of 1000 to 10000 nM. The EC50 in data set [2] was less than 100 nM.

For `C[C@H](Nc1nc(NCc2ccc(-n3cncn3)cc2)nc2ccc(-c3cccc(S(C)(=O)=O)c3)nc12)C(F)(F)F` [Example 187, N^2-(4-(1H-1,2,4-triazol-1-yl)benzyl)-6-(3-(methylsulfonyl)phenyl)-N^4-((S)-1,1,1-trifluoropropan-2-yl)pyrido [3,2-d]pyrimidine-2,4-diamine], the CC50 at 3 days in data set [1] (Table 2, 3 days incubation) is greater than 10000 nM. Further, the EC50 in data set [2] is less than 100 nM.

Turning to `C[C@@H](Nc1nc(NCC(F)(F)F)c2nc(-c3cccc(S(C)(=O)=O)c3)ccc2n1)c1ccc(-n2cncn2)cc1` [Example 170, N^2-((R)-1-(4-(1H-1,2,4-triazol 1-yl)phenyl)ethyl)-6-(3-(methylsulfonyl)phenyl)-N^4-(2,2,2-trifluoroethyl)pyrido [3,2-d]pyrimidine-2,4-diamine], in data set [1] (Table 2, 3 days incubation), the CC50 at 3 days was 1000 to 10000 nM. In addition, the EC50 in data set [2] is less than 100 nM.

As for `C[C@H](Nc1nc(NCc2ccc(-n3cncn3)cc2)nc2ccc(C#CC3CC3)nc12)C(F)(F)F` [Example 292, (S)-N^2-(4-(1H-1,2,4-triazol-1-yl)benzyl)-6-(2-cyclopropyl-ethynyl)-N^4-(1,1,1-trifluoro-propan-2-yl)pyrido[3,2-d] pyrimidine-2,4-diamine], the CC50 at 3 days in data set [1] (Table 2, 3 days incubation) was greater than 10000 nM. In data set [2], the EC50 lay in the range of 250 to 2000 nM.

In turn, `COc1ccc(-c2ccc3nc(NCc4cccc(-n5cncn5)c4)nc(NCC(F)(F)F)c3n2)cc1S(C)(=O)=O` [Example 20] showed a CC50 at 3 days in data set [1] (Table 1, 3 days incubation) greater than 25000 nM. The EC50 in data set [2] is less than 100 nM.

As to `CCOc1ccc(-c2ccc3nc(N[C@H](C)c4ccc(-n5cncn5)cc4)nc(NCC(F)(F)F)c3n2)cc1S(N)(=O)=O` [Example 265, 5-(2-((R)-1-(4-(1H-1,2,4-triazol-1-yl)phenyl)ethylamino)-4-(2,2,2-trifluoroethylamino)pyrido [3,2-d]pyrimidin-6-yl)-2-ethoxybenzenesulfonamide], in data set [1] (Table 2, 3 days incubation), the CC50 at 3 days fell in the range of 1000 to 10000 nM. Besides, the EC50 in data set [2] was less than 100 nM.

Consider `NS(=O)(=O)c1ccc(Cl)c(CNc2nc(NC3(C(F)(F)F)CC3)c3nc(-c4ccc(F)cc4)ccc3n2)c1` [Example 41, 4-chloro-3-((6-(4-fluorophenyl)-4-(1-(trifluoromethyl)cyclopropyl-amino)pyrido[3,2-d]pyrimidin-2-ylamino)methyl)benzene-sulfonamide], for which the CC50 at 3 days in data set [1] (Table 2, 3 days incubation) is 1000 to 10000 nM. The compound further yielded an EC50 in data set [2] of 100 to 250 nM.

The compound `C[C@@H](Cn1cncn1)Nc1nc(NCC(F)(F)F)c2nc(-c3cccc(S(C)(=O)=O)c3)ccc2n1` [Example 169, N^2-((S)-1-(1H-1,2,4-triazol-1-yl)propan-2-yl)-6-(3-(methylsulfonyl)phenyl)-N^4-(2,2,2-trifluoroethyl)pyrido [3,2-d]pyrimidine-2,4-diamine] gave a CC50 at 3 days in data set [1] (Table 2, 3 days incubation) greater than 10000 nM. This compound also yielded an EC50 in data set [2] of 250 to 2000 nM.

Turning to `Cc1ccc(-c2ccc3nc(NCc4cccc(S(C)(=O)=O)c4)nc(NC4(C(F)(F)F)CC4)c3n2)cc1S(C)(=O)=O` [Example 34, N^2-(3-(methylsulfonyl)benzyl)-6-(4-methyl-3-(methylsulfonyl)phenyl)-N^4-(1-(trifluoromethyl)cyclopropyl) pyrido[3,2-d]pyrimidine-2,4-diamine], the CC50 at 3 days in data set [1] (Table 2, 3 days incubation) is 1000 to 10000 nM. In data set [2], this compound displayed an EC50 of less than 100 nM.

Take `CCOc1ccc(-c2ccc3nc(NCc4cccc(S(C)(=O)=O)c4)nc(NCC(F)(F)F)c3n2)cn1` [Example 230, N^2-(3-(methylsulfonyl)benzyl)-6-(6-ethoxypyridin-3-yl)-N^4-(2,2,2-trifluoroethyl)pyrido [3,2-d]pyrimidine-2,4-diamine]: the CC50 at 3 days in data set [1] (Table 2, 3 days incubation) is greater than 10000 nM. Moreover, the half-maximal effective concentration (EC50) in data set [2] is less than 100 nM.

On to `NS(=O)(=O)c1ccc(CNc2nc(NCC(F)(F)F)c3nc(C#CC4CC4)ccc3n2)cc1` [Example 279, 4-((6-(2-cyclopropylethynyl)-4-(2,2,2-trifluoroethylamino)pyrido[3,2-d]pyrimidin-2-ylamino)methyl)benzene-sulfonamide], for which, in data set [1] (Table 2, 3 days incubation), the CC50 at 3 days is greater than 10000 nM. In addition, the EC50 in data set [2] is 100 to 250 nM.

Take `COc1ccc(-c2ccc3nc(NCc4ccc(S(N)(=O)=O)cc4)nc(NC(C(F)(F)F)C(F)(F)F)c3n2)cc1S(C)(=O)=O` [Example 151, 4-((4-(1,1,1,3,3,3-hexafluoropropan-2-ylamino)-6-(4-methoxy-3-(methylsulfonyl)phenyl)pyrido[3,2-d]pyrimidin-2-ylamino)methyl)benzene-sulfonamide]: the CC50 at 3 days in data set [1] (Table 2, 3 days incubation) is 1000 to 10000 nM. The same compound returned an EC50 in data set [2] of less than 100 nM.

Turning to `[2H]C([2H])([2H])C([2H])([2H])Oc1ccc(-c2ccc3nc(NCc4ccc(-n5cncn5)cc4)nc(NCC(F)(F)F)c3n2)cn1` [Example 256, N^2-(4-(1H-1,2,4-triazol-1-yl)benzyl)-6-(6-pentadeutero-ethoxypyridin-3-yl)-N^4-(2,2,2-trifluoroethyl)pyrido[3,2-d] pyrimidine-2,4-diamine], the CC50 at 3 days in data set [1] (Table 2, 3 days incubation) is greater than 10000 nM. The EC50 in data set [2] is less than 100 nM.

`C#Cc1ccc2nc(NCc3ccc(S(N)(=O)=O)cc3)nc(OC3CC3)c2n1` [Example 300, 4-((4-cyclopropoxy-6-ethynylpyrido[3,2-d]pyrimidin-2-ylamino)methyl) benzenesulfonamide] displayed a CC50 at 3 days in data set [1] (Table 2, 3 days incubation) of 1000 to 10000 nM. Further, in data set [2], the EC50 fell in the range of 250 to 2000 nM.

Regarding `CS(=O)(=O)c1cccc(-c2ccc3nc(NCC(O)CO)nc(NCC(F)(F)F)c3n2)c1` (centres unmarked) [Example 158, 3-(6-(3-(methylsulfonyl)phenyl)-4-(2,2,2-trifluoroethylamino)pyrido[3,2-d]pyrimidin-2-ylamino)propane-1,2-diol], the CC50 at 3 days in data set [1] (Table 2, 3 days incubation) was greater than 10000 nM. The compound further returned an EC50 in data set [2] of 250 to 2000 nM.

`CCOc1ccc(-c2ccc3nc(N[C@H]4CCN(C(=O)[C@H](NC(=O)OC)C(C)C)C4)nc(NCC(F)(F)F)c3n2)cc1S(N)(=O)=O` [Example 266, methyl (R)-1-((S)-3-(6-(4-ethoxy-3-(aminosulfonyl)phenyl)-4-(2,2,2-trifluoroethylamino)pyrido[3,2-d]pyrimidin-2-ylamino)pyrrolidin-1-yl)-3-methyl-1-oxobutan-2-ylcarbamate] gave a CC50 at 3 days in data set [1] (Table 2, 3 days incubation) of 1000 to 10000 nM. The compound also registered an EC50 in data set [2] of less than 100 nM.

Consider `COc1ccc(-c2ccc3nc(NCc4cccc(-n5cncn5)c4)nc(NC4(C(F)(F)F)CC4)c3n2)cc1S(C)(=O)=O` [Example 39, N^2-(3-(1H-1,2,4-triazol-1-yl)benzyl)-6-(4-methoxy-3-(methylsulfonyl)phenyl)-N^4-(1-(trifluoromethyl)cyclopropyl) pyrido[3,2-d]pyrimidine-2,4-diamine], for which the CC50 at 3 days in data set [1] (Table 2, 3 days incubation) was greater than 10000 nM. The EC50 in data set [2] is less than 100 nM.
